US9493446B2, “Orexin receptor antagonists which are [ortho bi-(hetero-)aryl]-[2-(meta bi-(hetero-)aryl)-pyrrolidin-1-yl]-methanone derivatives” (Actelion Pharmaceuticals Ltd, priority 2012, dated 2016)
Where two headings read alike, the source gives them in different places.

Tests used:
orexin-1 = orexin-1 (Homo sapiens (Human), UniProt O43613); experiment: Intracellular calcium measurement (FLIPR), CHO cells expressing human orexin-1 receptor, 3 nM orexin-A; type: cell-based; details: read-out: IC50 OX1
orexin-1, sequence (O43613 whole entry): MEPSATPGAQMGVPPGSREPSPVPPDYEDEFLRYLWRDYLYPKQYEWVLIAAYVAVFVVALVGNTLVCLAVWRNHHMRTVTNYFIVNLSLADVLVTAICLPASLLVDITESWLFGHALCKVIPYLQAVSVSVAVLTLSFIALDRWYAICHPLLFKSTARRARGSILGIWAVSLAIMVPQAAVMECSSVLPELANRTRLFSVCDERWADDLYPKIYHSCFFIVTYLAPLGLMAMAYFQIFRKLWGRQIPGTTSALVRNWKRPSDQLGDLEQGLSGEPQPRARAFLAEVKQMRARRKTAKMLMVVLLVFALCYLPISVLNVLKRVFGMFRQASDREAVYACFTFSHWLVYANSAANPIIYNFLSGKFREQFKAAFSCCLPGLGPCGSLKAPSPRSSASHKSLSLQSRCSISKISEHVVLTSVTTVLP
In short: (§1)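 CHO transfectants were dye-loaded (fluo-4 AM, probenecid) and exposed to antagonist for 120 min ahead of agonist.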

human orexin-2 receptor = human orexin-2 receptor (Homo sapiens (Human), UniProt O43614); experiment: Intracellular calcium measurement (FLIPR), CHO cells expressing human orexin-2 receptor, 3 nM orexin-A; type: cell-based; details: read-out: IC50 OX2
human orexin-2 receptor, sequence (O43614 whole entry): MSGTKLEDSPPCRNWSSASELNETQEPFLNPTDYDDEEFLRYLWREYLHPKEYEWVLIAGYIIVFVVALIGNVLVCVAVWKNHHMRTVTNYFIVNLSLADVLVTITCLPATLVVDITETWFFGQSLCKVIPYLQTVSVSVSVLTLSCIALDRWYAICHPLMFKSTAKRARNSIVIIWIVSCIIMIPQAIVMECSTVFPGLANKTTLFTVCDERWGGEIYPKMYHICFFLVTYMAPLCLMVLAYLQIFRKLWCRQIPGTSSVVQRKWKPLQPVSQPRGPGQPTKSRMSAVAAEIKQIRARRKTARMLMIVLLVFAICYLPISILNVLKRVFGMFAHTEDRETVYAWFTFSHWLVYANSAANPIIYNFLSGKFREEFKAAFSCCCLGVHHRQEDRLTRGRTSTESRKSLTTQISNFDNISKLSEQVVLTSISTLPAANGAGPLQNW
In short: as §1

[1] = CHO cells expressing human orexin-1 receptor, FLIPR, 3 nM orexin-A, geometric mean if determined several times
[2] = CHO cells expressing human orexin-2 receptor, FLIPR, 3 nM orexin-A, geometric mean if determined several times

IC50 (orexin-1; [1]) | IC50 (human orexin-2 receptor; [2]) | SMILES | IC50 (human orexin-2 receptor) | IC50 (orexin-1)
164 nM | 74 nM | Cc1cccc(-c2nc([C@@H]3CCCN3C(=O)c3cc(C)ccc3-n3nccn3)no2)c1 [compound 305, (5-Methyl-2-[1,2,3]triazol-2-yl-phenyl)-[(S)-2-(5-m-tolyl-[1,2,4]oxadiazol-3-yl)-pyrrolidin-1-yl]-methanone] |  | 
36 nM | 2 nM | CCOc1ccccc1-c1nc([C@@H]2CCCN2C(=O)c2cc(C)ccc2-n2nccn2)no1 [compound 306, {(S)-2-[5-(2-Ethoxy-phenyl)-[1,2,4]oxadiazol-3-yl]-pyrrolidin-1-yl}-(5-methyl-2-[1,2,3]triazol-2-yl-phenyl)-methanone] |  | 
130 nM | 3 nM | Cc1ccc(-n2nccn2)c(C(=O)N2CCC[C@H]2c2noc(-c3cccc4c3OCC4)n2)c1 [compound 307, {(S)-2-[5-(2,3-Dihydro-benzofuran-7-yl)-[1,2,4]oxadiazol-3-yl]-pyrrolidin-1-yl}-(5-methyl-2-[1,2,3]triazol-2-yl-phenyl)-methanone] |  | 
13 nM | 1 nM | CCOc1ccccc1-c1nc([C@@H]2CCCN2C(=O)c2cc(OC)c(C)cc2-n2nccn2)no1 [compound 309, {(S)-2-[5-(2-Ethoxy-phenyl)-[1,2,4]oxadiazol-3-yl]-pyrrolidin-1-yl}-(5-methoxy-4-methyl-2-[1,2,3]triazol-2-yl-phenyl)-methanone] |  | 
59 nM | 2 nM | COc1cc(C(=O)N2CCC[C@H]2c2noc(-c3cccc(F)c3C)n2)c(-n2nccn2)cc1C [compound 310, {(S)-2-[5-(3-Fluoro-2-methyl-phenyl)-[1,2,4]oxadiazol-3-yl]-pyrrolidin-1-yl}-(5-methoxy-4-methyl-2-[1,2,3]triazol-2-yl-phenyl)-methanone] |  | 
16 nM | 4 nM | CCOc1ncccc1-c1nc([C@@H]2CCCN2C(=O)c2cc(OC)c(C)cc2-n2nccn2)no1 [compound 311, {(S)-2-[5-(2-Ethoxy-pyridin-3-yl)-[1,2,4]oxadiazol-3-yl]-pyrrolidin-1-yl}-(5-methoxy-4-methyl-2-[1,2,3]triazol-2-yl-phenyl)-methanone] |  | 
204 nM | 89 nM | Cc1ccc(-n2nccn2)c(C(=O)N2CCC[C@H]2c2noc(-c3n[nH]c4ccccc34)n2)c1 [compound 312, {(S)-2-[5-(1H-Indazol-3-yl)-[1,2,4]oxadiazol-3-yl]-pyrrolidin-1-yl}-(5-methyl-2-[1,2,3]triazol-2-yl-phenyl)-methanone] |  | 
661 nM | 76 nM | Cc1ccc(-n2nccn2)c(C(=O)N2CCC[C@H]2c2noc(-c3cnc4sccn34)n2)c1 [compound 313, [(S)-2-(5-Imidazo[2,1-b]thiazol-5-yl-[1,2,4]oxadiazol-3-yl)-pyrrolidin-1-yl]-(5-methyl-2-[1,2,3]triazol-2-yl-phenyl)-methanone] |  | 
249 nM | 314 nM | Cc1ccc(-n2nccn2)c(C(=O)N2CCC[C@H]2c2noc(-c3cccc(C(F)(F)F)n3)n2)c1 [compound 314, (5-Methyl-2-[1,2,3]triazol-2-yl-phenyl)-{(S)-2-[5-(6-trifluoromethyl-pyridin-2-yl)-[1,2,4]oxadiazol-3-yl]-pyrrolidin-1-yl}-methanone] |  | 
1050 nM | 2130 nM | Cc1ccc(-n2nccn2)c(C(=O)N2CCC[C@H]2c2noc(-c3cc(C(F)(F)F)ccn3)n2)c1 [compound 315, (5-Methyl-2-[1,2,3]triazol-2-yl-phenyl)-{(S)-2-[5-(4-trifluoromethyl-pyridin-2-yl)-[1,2,4]oxadiazol-3-yl]-pyrrolidin-1-yl}-methanone] |  | 
54 nM | 19 nM | COc1cc(Cl)cc(-c2nc([C@@H]3CCCN3C(=O)c3cc(C)ccc3-n3nccn3)no2)n1 [compound 316, {(S)-2-[5-(4-Chloro-6-methoxy-pyridin-2-yl)-[1,2,4]oxadiazol-3-yl]-pyrrolidin-1-yl}-(5-methyl-2-[1,2,3]triazol-2-yl-phenyl)-methanone] |  | 
11 nM | 2 nM | CCOc1c(F)cccc1-c1nc([C@@H]2CCCN2C(=O)c2cc(C)ccc2-n2nccn2)no1 [compound 319, {(S)-2-[5-(2-Ethoxy-3-fluoro-phenyl)-[1,2,4]oxadiazol-3-yl]-pyrrolidin-1-yl}-(5-methyl-2-[1,2,3]triazol-2-yl-phenyl)-methanone] |  | 
9 nM | 1 nM | CCOc1c(F)cccc1-c1nc([C@@H]2CCCN2C(=O)c2cc(OC)c(C)cc2-n2nccn2)no1 [compound 323, {(S)-2-[5-(2-Ethoxy-3-fluoro-phenyl)-[1,2,4]oxadiazol-3-yl]-pyrrolidin-1-yl}-(5-methoxy-4-methyl-2-[1,2,3]triazol-2-yl-phenyl)-methanone] |  | 
151 nM | 6 nM | CCOc1c(F)cccc1-c1nc([C@@H]2CCCN2C(=O)c2cc(OC)c(F)cc2-n2nccn2)no1 [compound 325, {(S)-2-[5-(2-Ethoxy-3-fluoro-phenyl)-[1,2,4]oxadiazol-3-yl]-pyrrolidin-1-yl}-(4-fluoro-5-methoxy-2-[1,2,3]triazol-2-yl-phenyl)-methanone] |  | 
27 nM | 3 nM | CCOc1c(F)cccc1-c1nc([C@@H]2CCCN2C(=O)c2cc(OC)ccc2-n2nccn2)no1 [compound 326, {(S)-2-[5-(2-Ethoxy-3-fluoro-phenyl)-[1,2,4]oxadiazol-3-yl]-pyrrolidin-1-yl}-(5-methoxy-2-[1,2,3]triazol-2-yl-phenyl)-methanone] |  | 

SMILES | IC50 (orexin-1; [1]) | IC50 (human orexin-2 receptor; [2]) | IC50 (human orexin-2 receptor) | IC50 (orexin-1)
Cc1cc(-n2nccn2)c(C(=O)N2CCC[C@H]2c2nc(-c3cccc(Cl)c3C)no2)cc1Cl [compound 293] | 32 nM | 10 nM |  | 
Cc1c(F)cccc1-c1noc([C@@H]2CCCN2C(=O)c2ccc(Cl)cc2-n2nccn2)n1 [compound 294] | 155 nM | 17 nM |  | 
COc1cc(C(=O)N2CCC[C@H]2c2nc(-c3cccc(F)c3C)no2)c(-n2nccn2)cc1Cl [compound 295] | 78 nM | 3 nM |  | 
Cc1c(Cl)cccc1-c1noc([C@@H]2CCCN2C(=O)c2cccc(Cl)c2-n2nccn2)n1 [compound 296] | 582 nM |  | 272 nM | 
COc1c(F)cccc1-c1noc([C@@H]2CCCN2C(=O)c2cccc(Cl)c2-n2nccn2)n1 [compound 297] |  | 478 nM |  | 690 nM
O=C(c1cccc(Cl)c1-n1nccn1)N1CCC[C@H]1c1nc(-c2ccccc2OC(F)(F)F)no1 [compound 298] | 531 nM | 517 nM |  | 
Cc1cc(-n2nccn2)c(C(=O)N2CCC[C@H]2c2nc(-c3ccccc3OC(F)(F)F)no2)cc1Cl [compound 299] | 25 nM | 19 nM |  | 
CCOc1c(F)cccc1-c1noc([C@@H]2CCCN2C(=O)c2cc(Cl)c(C)cc2-n2nccn2)n1 [compound 300] | 14 nM | 10 nM |  | 
CCOc1ncccc1-c1noc([C@@H]2CCCN2C(=O)c2cc(Cl)c(C)cc2-n2nccn2)n1 [compound 301] | 19 nM | 6 nM |  | 
COc1cc(C(=O)N2CCC[C@H]2c2noc(-c3cccc(Cl)c3C)n2)c(-n2nccn2)cc1C [compound 320] | 25 nM | 1 nM |  | 
Cc1cc(C(=O)N2CCC[C@H]2c2noc(-c3cccc(Cl)c3C)n2)c(-n2nccn2)cc1C [compound 321] |  | 1 nM |  | 7 nM
COc1cc(C(=O)N2CCC[C@H]2c2noc(-c3cccc(Cl)c3C)n2)c(-n2nccn2)cc1F [compound 322] | 158 nM | 6 nM |  | 
